# Measured values published in patent US4713453A, “Oxabicycloheptane derivatives” (Suntori Limited, priority 1986, dated 1987).
# Entries after “also recorded” stand apart in the source; their conditions may differ. Read-outs that look alike come from different tables or passages of the source.
# What was measured:
# [1] = test system: rabbit platelet rich plasma; assay: Effect on in vitro platelet aggregation; assay type: cell-based, rabbit (male Japanese white); conditions: for IC50: Oryctolagus cuniculus, Platelet
# Method: 5. Effect on in vitro platelet aggregation Arterial blood was drawn from the ear artery of male Japanese white rabbits. Platelet rich plasma (PRP) was prepared by centrifugation of 9 ml of blood mixed with 1 ml of 3.8% sodium citrate as anticoagulant. Platelet aggregation was measured optically according to Born's method. ADP (10 μM), collagen (37.5 μg/ml), platelet activating factor (PAF, 0.11 nM) and calcium ionophore A 23187 (1 μg/ml) were used as platelet aggregators. Test compounds were added 1 minute prior to the addition of aggregating agents.
# [2] = test system: rabbit platelet rich plasma; assay: Effect on in vitro platelet aggregation; assay type: cell-based, rabbit (male Japanese white); conditions: Oryctolagus cuniculus, aggregator AA, read-out: Anti-platelet aggregation IC50, AA
# Male ddY mice [3] = assay: Anti-cerebroischemic effect (brain protection after ischemia by decapitation): gasping time; assay type: in vivo, mouse (male ddY); conditions: intraperitoneal, 30 min before decapitation
# Method: 1. Anti-cerebroischemic effect (i.e., brain protection after ischemia by decapitation)
# Male ddY mice weighing 22-30 g were used in groups each consisting of 6 animals. Test compounds were administered intraperitoneally to the mice which were decapitated 30 minutes after the administration. The gasping time, or the duration of time between the onset of panting after decapitation and its cessation, was measured, and this was compared with the gasping time for a control group which were given only a liquid vehicle.
# Male ddY mice [4] = assay: Anti-hypoxia effect (brain protection in low-oxygen state after evacuation): survival time; assay type: in vivo, mouse (male ddY); conditions: intraperitoneal, 180 mmHg
# Method: 2. Anti-hypoxia effect (i.e., […] protection in low-oxygen state after evacuation)
# Male ddY m8mice weighing 22-30 g were used in groups each consisting of 7-10 animals. The mice were placed in a desiccator (capacity: ca. 1,000 ml) which was evacuated with a vacuum pump to an internal pressure of 180 mmHg after intraperitoneal administration of test compounds. The survival time, or the duration of time between the start of evacuation and the cessation of breathing, was measured, and this was compared with the value for a vehicle group. Any survival time longer than a period of 15 minutes after application of a hypoxia load was counted as 15 minutes.
# vertebral artery = assay: Effect on blood flow in the vertebral artery, blood pressure and heart rate in anesthetized dogs; assay type: in vivo, dog (mongrel); conditions: femoral vein
# Method: 4. Effect on blood flow in the vertebral artery, blood pressure and heart rate in anesthetized dogs
# Mongrel dogs of either sex, weighing 6.8-9.4 kg, were used. The animals were anesthetized with an intravenous injection, at first, of 30 mg/kg of sodium thiopental and thereafter, of a combination of urethane 400 mg/kg and α-chloralose 60 mg/kg. Under artificial ventilation (20 ml/kg/stroke, 20 strokes/min), blood flow in the vertebral artery and blood pressure were measured with the aid of an extracorporeal electromagnetic flow probe placed on the artery and a pressure transducer, respectively. Vertebral vascular resistance was recorded with an electronic divider and heart rate was measured with a heart rate counter triggered by blood pressure pulses. All of these parameters were recorded on a polygraph continuously. When these parameters became stable, test compounds were injected into the femoral vein.
# [5] = test system: scopolamine amnesia mouse; assay: Anti-amnesia effect (scopolamine-induced retrograde amnesia), step-through passive avoidance; assay type: in vivo, mouse (male ddY); conditions: ip, 24 h, significant prolongation of step-through latency, intraperitoneal, scopolamine 0.5 mg/kg s.c., read-out: Minimum effective amount
# Method: 6a. Anti-amnesia effect (i.e., capability of preventing scopolamine-inducedretrograde amnesia)
# Five-week old male ddY weighing 25-30 g were used in groups each consisting of 10 animals. Memory retention deficit induced by scopolamine was evaluated by two-compartment step-through passive avoidance task. […] The floor of the dark compartment was provided with a current-conducting grid.
# The experimental method was as follows. A scopolamine amnesia mouse that had been given subcutaneous injection of 0.5 mg/kg of an aqueous solution of scopolamine borate 20 minutes before was placed in the light compartment and when its forefeet touched the grid floor of the dark compartment, a current of 0.6 mA was applied to give a foot shock to the mouse (acquired conation). Immediately thereafter, a selected test compound or a control (physiological saline solution) was administered intraperitoneally. Twenty-four hours later, the mouse was replaced in the light compartment and the step-through latency, or the time required for the mouse to move to the dark compartment, was measured for a period of up to 300 seconds (test conation). The minimum effective amount of the test compound that provided a significant prolongation of the step-through latency over the control was determined.
# [6] = test system: ECS-induced amnesia in mice; assay: Effect on electroconvulsive shock (ECS)-induced amnesia in mice, step-through passive avoidance; assay type: in vivo, mouse (male ddY); conditions: 6.25 and 12.5 mg/kg, intraperitoneal, 30 minutes before retention test
# Method: (§1) 6b. Effects on electroconvulsive shock (ECS)- and cycloheximide-induced amnesia in mice
# (§2) Male, ddY strain mice, weighing 25 to 35 g, were used. Memory retention deficit induced by ECS and cycloheximide was evaluated by two-compartment step-through passive avoidance task using a light-dark apparatus. Passive avoidance training test began by placing the mouse into the light compartment. When the mouse moved completely into the dark compartment, a shock of 0.6 mA was applied from the grid floor. Amnesia was induced in the following two ways. In the first one, a single ECS (current 50 mA, frequency 50 Hz, pulse width 1 msec, shock duration 1 msec) was applied via a pair of electrodes attached to the head immediately after receiving the foot shock, and the mouse was returned to its home cage. Test compounds were administered intraperitoneally 30 minutes before a retention test. In the second one, cycloheximide (40 mg/kg) was administered subcutaneously 30 minutes before the training and the compounds in question were administered intraperitoneally immediately after the training. A retention test was given 24 hours later. The test procedures proceeded in a manner similar to the training one, and time to entry into the dark compartment was measured for 300 seconds.
# [7] = test system: cycloheximide-induced amnesia in mice; assay: Effect on cycloheximide-induced amnesia in mice, step-through passive avoidance; assay type: in vivo, mouse (male ddY); conditions: 6.25 and 50 mg/kg, intraperitoneal, immediately after training; cycloheximide 40 mg/kg s.c.
# Method: as §1, §2
# Male ICR mice = assay: Anti-depression effect (forced swimming, revolutions of water wheel); assay type: in vivo, mouse (male ICR); conditions: 50 mg/kg, intraperitoneal
# Source text: Male ICR mice weighing 25-30 g were used in groups each consisting of 6 or 7 animals. […] First, the mouse was subjected to force swimming for two days on a 15-minutes-a-day basis; starting on the third day, the mouse that had received intraperitoneal injection of a test compound one hour before was subjected to forced swimming for 3 days on a 15-minutes-a-day basis.
# [8] = aggregator ADP (10 μM), read-out: Anti-platelet aggregation IC50, ADP
# [9] = aggregator PAF (0.11 nM), read-out: Anti-platelet aggregation IC50, PAF
# [10] = aggregator calcium ionophore A 23187 (1 μg/ml), read-out: Anti-platelet aggregation IC50, A 23187
# [11] = aggregator collagen (37.5 μg/ml), read-out: Anti-platelet aggregation IC50, Collagen
compound,measurement,setting,value
CN(C)CCCN1c2ccccc2Sc2ccc(Cl)cc21 [Chlorpromazine],IC50,[1]; [8],57 µg/mL
same,IC50,[1]; [9],93 µg/mL
same,IC50,[1]; [10],125 µg/mL
same,IC50,[1]; [11],22 µg/mL
same,IC50,[2],105 µg/mL
"CN(C)CCCON=C1c2ccccc2OC2(c3ccccc3)CC12 (stereo not shown) [Example 2, 3,4-Benzo-5-(3-dimethylaminopropyl)oxyimino-1-phenyl-2-oxabicyclo[4.1.0]heptane]",prolongation of gasping time,Male ddY mice [3]; 12.5 mg/kg,significant prolongation of the gasping time
same,prolongation of gasping time,Male ddY mice [3]; 25 mg/kg,significantly prolonging the gasping time
same,prolongation of survival time,Male ddY mice [4]; 6.25 mg/kg or smaller,significant prolongation of the survival time
same,prolongation of survival time,Male ddY mice [4]; 12.5 mg/kg,significantly prolonging the survival time
same,blood pressure,vertebral artery; 3.0 mg/kg,small decrease
same,heart rate,vertebral artery; 3.0 mg/kg,increase
same,vertebral vascular resistance,vertebral artery; 3.0 mg/kg,further decrease
same,blood pressure,vertebral artery; 0.3 and 1.0 mg/kg,almost no change
same,heart rate,vertebral artery; 0.3 and 1.0 mg/kg,almost no change
same,vertebral vascular resistance,vertebral artery; 0.3 and 1.0 mg/kg,dose-dependent decreases
same,IC50,[1]; [8],34.5 µg/mL
same,IC50,[1]; [9],20 µg/mL
same,IC50,[1]; [10],69 µg/mL
same,IC50,[1]; [11],4.1 µg/mL
same,platelet aggregation,"[1]; all the aggregators used, listed as Compound No. 2",decreases in platelet aggregation induced by all the aggregators used; also recorded: nonspecific inhibitory actions on in vitro platelet aggregation
same,minimal effective dose,[5],3.2 mg/kg
same,prevention of ECS-induced shortening of step-through latency,[6],significantly prevented the ECS-induced shortening of step-through latency
same,prolongation of step-through latency shortened by cycloheximide,[7],significantly prolonged the step-through latency
same,anti-depression effect,Male ICR mice,anti-depression effect
same,rotation of the water wheel relative to control group,Male ICR mice; one hour before forced swimming,1.8 times
same,IC50,[2],54 µg/mL
NCCCCCCNS(=O)(=O)c1cccc2c(Cl)cccc12 [Example W-7],IC50,[1]; [8],18 µg/mL
same,IC50,[1]; [9],27 µg/mL
same,IC50,[1]; [10],19 µg/mL
same,IC50,[1]; [11],11 µg/mL
same,IC50,[2],11 µg/mL
